The values that follow come from patent US20240246937A1 (MERCK SHARP & DOHME LLC, priority 2021, published 2024).

Chain of recombinant IL4I1 (Q96RQ9 22-567): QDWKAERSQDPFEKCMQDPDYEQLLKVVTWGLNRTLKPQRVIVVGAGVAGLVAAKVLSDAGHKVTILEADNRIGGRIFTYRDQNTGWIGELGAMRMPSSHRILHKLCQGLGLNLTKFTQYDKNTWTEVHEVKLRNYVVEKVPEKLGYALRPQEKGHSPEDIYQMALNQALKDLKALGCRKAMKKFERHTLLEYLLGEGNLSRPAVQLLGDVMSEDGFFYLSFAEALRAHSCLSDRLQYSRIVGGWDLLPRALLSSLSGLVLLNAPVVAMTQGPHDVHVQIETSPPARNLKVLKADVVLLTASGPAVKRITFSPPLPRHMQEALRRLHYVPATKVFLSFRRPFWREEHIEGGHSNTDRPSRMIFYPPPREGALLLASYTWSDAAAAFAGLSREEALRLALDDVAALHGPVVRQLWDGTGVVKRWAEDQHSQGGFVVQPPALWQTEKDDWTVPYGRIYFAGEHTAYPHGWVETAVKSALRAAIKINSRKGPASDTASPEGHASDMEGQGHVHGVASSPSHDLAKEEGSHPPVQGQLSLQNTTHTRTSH

In this assay the target is recombinant IL4I1 (Homo sapiens (Human), UniProt Q96RQ9). Put plainly: IL4I1 Enzymatic Assay (Amplex Red/HRP coupled fluorescence detection of H2O2). The following applies: 240 min; recombinant IL4I1, four-hour pre-incubation with compound. In kind it is biochemical. In short, it runs like this:
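Ten-point, 1:3 compound titrations were fitted by four-parameter sigmoidal regression to give EC50. Resorufin fluorescence (544/590 nm) from Amplex Red/HRP-coupled H2O2 detection was read 120 min after adding 1 mM each aromatic amino acid to 1 nM IL4I1, following a 4 h compound pre-incubation in pH 7.0 Hepes buffer.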
In general, EC50 refers to the midpoint of the concentration-response curve. Consider `O=C1C(=O)N(C23CC(F)(C2)C3)CCN1Cc1ccc(-n2cccn2)nc1` [Example 237, 1-((6-(1H-pyrazol-1-yl)pyridin-3-yl)methyl)-4-(3-fluorobicyclo[1.1.1]pentan-1-yl)piperazine-2,3-dione], for which the concentration for a half-maximal effect (EC50) is 346 nM.

For the compound `O=c1c(=O)n(C2(CF)CC2)ccn1Cc1cc(-c2ccccn2)on1` [Example 238, 1-(1-(fluoromethyl)cyclopropyl)-4-((5-(pyridin-2-yl)isoxazol-3-yl)methyl)-1,4-dihydropyrazine-2,3-dione], the EC50 was 29 nM.

In the case of `O=c1c(=O)n(C2(CF)CC2)ccn1Cc1ccc(-c2ccccn2)nn1` [Example 239, 1-(1-(fluoromethyl)cyclopropyl)-4-((6-(pyridin-2-yl)pyridazin-3-yl)methyl)-1,4-dihydropyrazine-2,3-dione], the EC50 amounted to 82 nM.

For the compound `O=C1C(=O)N(C23CC(F)(C2)C3)CCN1Cc1cc(-c2cccnc2)no1` [Example 240, 1-(3-fluorobicyclo[1.1.1]pentan-1-yl)-4-((3-(pyridin-3-yl)isoxazol-5-yl)methyl)piperazine-2,3-dione], the EC50 was 995 nM.

As for `O=C1C(=O)N(C23CC(F)(C2)C3)CCN1Cc1ccc(-c2cccnc2)nn1` [Example 241, 1-(3-fluorobicyclo[1.1.1]pentan-1-yl)-4-((6-(pyridin-3-yl)pyridazin-3-yl)methyl)piperazine-2,3-dione], the EC50 was found to be 40 nM.

As to `O=c1c(=O)n(C2(CF)CC2)ccn1Cc1ccc(-c2ccccc2F)nn1` [Example 242, 1-(1-(fluoromethyl)cyclopropyl)-4-((6-(2-fluorophenyl)pyridazin-3-yl)methyl)-1,4-dihydropyrazine-2,3-dione], the EC50 amounted to 32 nM.

In the case of `O=C1C(=O)N(C23CC(F)(C2)C3)CCN1Cc1ccc(-c2cncs2)nn1` [Example 243, 1-(3-fluorobicyclo[1.1.1]pentan-1-yl)-4-((6-(thiazol-5-yl)pyridazin-3-yl)methyl)piperazine-2,3-dione], the EC50 came out at 30 nM.

Regarding `O=C1C(=O)N(C23CC(F)(C2)C3)CCN1Cc1ccc(-n2nccn2)cn1` [Example 244, 1-((5-(2H-1,2,3-triazol-2-yl)pyridin-2-yl)methyl)-4-(3-fluorobicyclo[1.1.1]pentan-1-yl)piperazine-2,3-dione], the EC50 came out at 45 nM.

Consider `O=c1c(=O)n(C2(CF)CC2)ccn1Cc1ccc(-c2cncs2)nn1` [Example 245, 1-(1-(fluoromethyl)cyclopropyl)-4-((6-(thiazol-5-yl)pyridazin-3-yl)methyl)-1,4-dihydropyrazine-2,3-dione], for which the EC50 was 43 nM.

Take `O=c1c(=O)n(C2(CF)CC2)ccn1Cc1cc(-c2cccnc2)no1` [Example 246, 1-(1-(fluoromethyl)cyclopropyl)-4-((3-(pyridin-3-yl)isoxazol-5-yl)methyl)-1,4-dihydropyrazine-2,3-dione]: the EC50 was determined as 37 nM.

As to `O=c1c(=O)n(C2(CF)CC2)ccn1Cc1ccc(-n2ccnn2)nn1` [Example 247, 1-((6-(1H-1,2,3-triazol-1-yl)pyridazin-3-yl)methyl)-4-(1-(fluoromethyl)cyclopropyl)-1,4-dihydropyrazine-2,3-dione], the EC50 worked out at 44 nM.

For `O=c1c(=O)n(C23CC(F)(C2)C3)ccn1Cc1ccc(-n2ccnn2)nn1` [Example 248, 1-((6-(1H-1,2,3-triazol-1-yl)pyridazin-3-yl)methyl)-4-(3-fluorobicyclo[1.1.1]pentan-1-yl)-1,4-dihydropyrazine-2,3-dione], the EC50 is 38 nM.

Regarding `O=C1C(=O)N(C23CC(F)(C2)C3)CCN1Cc1ccc(-n2ccnn2)nn1` [Example 249, 1-((6-(1H-1,2,3-triazol-1-yl)pyridazin-3-yl)methyl)-4-(3-fluorobicyclo[1.1.1]pentan-1-yl)piperazine-2,3-dione], the EC50 turned out to be 148 nM.

Turning to `O=C1C(=O)N(C23CC(F)(C2)C3)CCN1Cc1ccc(-n2cccn2)cn1` [Example 250, 1-((5-(1H-pyrazol-1-yl)pyridin-2-yl)methyl)-4-(3-fluorobicyclo[1.1.1]pentan-1-yl)piperazine-2,3-dione], the EC50 was found to be 240 nM.

As to `O=c1c(=O)n(C2(CF)CC2)ccn1Cc1ccc(-c2ccccn2)cn1` [Example 251, 1-([2,3′-bipyridin]-6′-ylmethyl)-4-(1-(fluoromethyl)cyclopropyl)-1,4-dihydropyrazine-2,3-dione], the EC50 worked out at 100 nM.

As to `O=C1C(=O)N(C23CC(F)(C2)C3)CCN1Cc1cc(-c2ccccn2)on1` [Example 252, 1-(3-fluorobicyclo[1.1.1]pentan-1-yl)-4-((5-(pyridin-2-yl)isoxazol-3-yl)methyl)piperazine-2,3-dione], the EC50 was found to be 38 nM.

Take `O=c1c(=O)n(C2(CF)CC2)ccn1Cc1cc(-c2cccnc2)on1` [Example 253, 1-(1-(fluoromethyl)cyclopropyl)-4-((5-(pyridin-3-yl)isoxazol-3-yl)methyl)-1,4-dihydropyrazine-2,3-dione]: the EC50 is 45 nM.

In the case of `O=C1C(=O)N(C23CC(F)(C2)C3)CCN1Cc1ccc(-c2ccccn2)cn1` [Example 254, 1-([2,3′-bipyridin]-6′-ylmethyl)-4-(3-fluorobicyclo[1.1.1]pentan-1-yl)piperazine-2,3-dione], the EC50 was determined as 93 nM.

As to `O=c1c(=O)n(C23CC(F)(C2)C3)ccn1Cc1ccc(-n2nccn2)nc1` [Example 255, 1-((6-(2H-1,2,3-triazol-2-yl)pyridin-3-yl)methyl)-4-(3-fluorobicyclo[1.1.1]pentan-1-yl)-1,4-dihydropyrazine-2,3-dione], the EC50 worked out at 47 nM.

Regarding `O=C1C(=O)N(C23CC(F)(C2)C3)CCN1Cc1cc(-c2cccnc2)on1` [Example 256, 1-(3-fluorobicyclo[1.1.1]pentan-1-yl)-4-((5-(pyridin-3-yl)isoxazol-3-yl)methyl)piperazine-2,3-dione], the EC50 was determined as 533 nM.

In the case of `O=c1c(=O)n(C2(CF)CC2)ccn1Cc1cn(-c2ccccn2)nn1` [Example 257, 1-(1-(fluoromethyl)cyclopropyl)-4-((1-(pyridin-2-yl)-1H-1,2,3-triazol-4-yl)methyl)-1,4-dihydropyrazine-2,3-dione], the EC50 stood at 68 nM.

For the compound `N#CC1(n2ccn(Cc3cn(-c4ccccn4)nn3)c(=O)c2=O)CC1` [Example 258, 1-(2,3-dioxo-4-((1-(pyridin-2-yl)-1H-1,2,3-triazol-4-yl)methyl)-3,4-dihydropyrazin-1(2H)-yl)cyclopropane-1-carbonitrile], the EC50 was found to be 78 nM.

With `O=C1C(=O)N(C23CC(F)(C2)C3)CCN1Cc1cn(-c2ccccn2)nn1` [Example 259, 1-(3-fluorobicyclo[1.1.1]pentan-1-yl)-4-((1-(pyridin-2-yl)-1H-1,2,3-triazol-4-yl)methyl)piperazine-2,3-dione], the half-maximal effective concentration (EC50) was found to be 78 nM.

Regarding `O=c1c(=O)n(C23CC(F)(C2)C3)ccn1Cc1cn(-c2ccccn2)nn1` [Example 260, 1-(3-fluorobicyclo[1.1.1]pentan-1-yl)-4-((1-(pyridin-2-yl)-1H-1,2,3-triazol-4-yl)methyl)-1,4-dihydropyrazine-2,3-dione], the EC50 was 38 nM.

As to `O=c1c(=O)n(C2(CF)CC2)ccn1Cc1ccc(-n2ccnn2)cn1` [Example 261, 1-((5-(1H-1,2,3-triazol-1-yl)pyridin-2-yl)methyl)-4-(1-(fluoromethyl)cyclopropyl)-1,4-dihydropyrazine-2,3-dione], the EC50 is 178 nM.

As to `O=c1c(=O)n(C23CC(F)(C2)C3)ccn1Cc1ccc(-n2ccnn2)cn1` [Example 262, 1-((5-(1H-1,2,3-triazol-1-yl)pyridin-2-yl)methyl)-4-(3-fluorobicyclo[1.1.1]pentan-1-yl)-1,4-dihydropyrazine-2,3-dione], the EC50 was 868 nM.

In the case of `O=C1C(=O)N(C23CC(F)(C2)C3)CCN1Cc1ccc(-n2ccnn2)cn1` [Example 263, 1-((5-(1H-1,2,3-triazol-1-yl)pyridin-2-yl)methyl)-4-(3-fluorobicyclo[1.1.1]pentan-1-yl)piperazine-2,3-dione], the EC50 is 995 nM.

In the case of `O=c1c(=O)n(C2(CF)CC2)ccn1Cc1ccc(-n2nccn2)nc1` [Example 264, 1-((6-(2H-1,2,3-triazol-2-yl)pyridin-3-yl)methyl)-4-(1-(fluoromethyl)cyclopropyl)-1,4-dihydropyrazine-2,3-dione], the EC50 turned out to be 73 nM.

Turning to `O=C1C(=O)N(C23CC(F)(C2)C3)CCN1Cc1ccc(-n2nccn2)nc1` [Example 265, 1-((6-(2H-1,2,3-triazol-2-yl)pyridin-3-yl)methyl)-4-(3-fluorobicyclo[1.1.1]pentan-1-yl)piperazine-2,3-dione], the EC50 was determined as 114 nM.

In the case of `O=C1C(=O)N([C@H]2C[C@@H](c3ccccc3)C2)CCN1Cc1ccc(-c2ccccc2)nc1` [Example 266A, cis-1-(3-phenylcyclobutyl)-4-((6-phenylpyridin-3-yl)methyl)piperazine-2,3-dione], the EC50 was 4 nM.

As for `O=C1C(=O)N([C@H]2C[C@H](c3ccccc3)C2)CCN1Cc1ccc(-c2ccccc2)nc1` [Example 266B, trans-1-(3-phenylcyclobutyl)-4-((6-phenylpyridin-3-yl)methyl)piperazine-2,3-dione], the EC50 worked out at 4 nM.

Turning to `O=C1C(=O)N(C2CCCC2)CCN1Cc1ccc(-c2ccccc2)[n+]([O-])c1` [Example 267, 5-((4-cyclopentyl-2,3-dioxopiperazin-1-yl)methyl)-2-phenylpyridine 1-oxide], the EC50 is 57 nM.

Take `O=C1C(=O)N(C2CCCC2)CCN1CCc1cc2ccc(Cl)cc2nn1` [Example 268, 1-(2-(7-chlorocinnolin-3-yl)ethyl)-4-cyclopentylpiperazine-2,3-dione]: the EC50 is 15 nM.

For `O=C1C(=O)N(C2CCCC2)CCN1CCc1cc2ccccc2nn1` [Example 269, 1-(2-(cinnolin-3-yl)ethyl)-4-cyclopentylpiperazine-2,3-dione], the EC50 was 49 nM.

For `O=C1C(=O)N(C2CCCC2)CCN1Cc1cnc(-c2ccccc2)nc1` [Example 270, 1-cyclopentyl-4-((2-phenylpyrimidin-5-yl)methyl)piperazine-2,3-dione], the EC50 stood at 24 nM.
